The values that follow are results of earlier work, collected in patent publication EP0333071A2, “Polypeptides, methods for their preparation, pharmaceutical compositions comprising them and use” (Eisai Co., Ltd., priority 1988, dated 1989).

In this data set the test system is enhancement in the quantity of spontaneous motion induced by methamphethamine. As to conditions: general administration; comparison statement for neurotensin or derivatives thereof.

For the substance neurotensin, the methamphethamine antagonism entry is on record as “hardly exhibit methamphethamine antagonism”.
